Where a SMILES comes first, the peptide text is derived from it. [ ]: non-standard residue; d: D form.
Experiments:
[1] = target: T1, Tau^Δ1‐250 (Homo sapiens, UniProt P10636); experiment: TEM of aggregated Tau^Δ1‐250; type: biochemical
T1 construct: Tau^Δ1‐250 (an aggregate prone truncated version of full‐length Tau); made in house; host or cells: E. coli BL21(DE3)
Description: Transmission electron microscopy (TEM): Tau was aggregated in similar conditions as above. Samples (10 µL) were loaded onto Formvar/Carbon 300 mesh copper grids for 3 min. The excess sample was wicked away and then negatively stained with 10 µL of filtered 2% phosphotungstic acid, pH 2, for 2 min. Grids were examined using a JEOL JEM‐1010 transmission electron microscope and were visualized and photographed at 50,000× magnification with 80.0 kV.
FIGURE 4 Lead peptide RI‐AG03 suppresses Tau β‐sheet content and forms of off‐pathway structures. […] 20 µM RI‐AG03 was added after 0, 24, and 72 h, of Tau aggregation (hatched gray bars), or not at all (solid gray bar representing end‐point aggregation of Tau^2N4R at 9 days). Note that Tau^2N4R aggregation plateaued at ∼72 h. […] One factor repeated measures ANOVA + Tukey post hoc statistical analysis: p > 0.05, *p ≤ 0.05, **p ≤ 0.01, ***p ≤ 0.001. (C) Negative stain TEM images using a Joel JEM‐1010 after the aggregation of 20 µM Tau^Δ1‐250 for 24 h, in the absence of RI‐AG03 (left), and in the presence of 20 µM RI‐AG03 (right). (D) The area and diameter of 200 large spherical species formed in the presence of 20 µM RI‐AG03 and recorded by TEM were quantified using iTEM software. […]

[2] = system: HEK‐293 cells
Description: (B) LDH cytotoxicity assay using varying concentrations of RI‐AG03 co‐incubated with HEK‐293 cells. LDH Cytotoxicity (%) denotes lysed cells. Cells were seeded to a 96‐well plate at 10,000 cells/100 µL per well. […] Experiments were conducted in triplicate.

[3] = in vitro; conditions: isolated enzyme trypsin
Description: 15% SDS PAGE gels of AG03 (100 µM) and RI-AG03 (100 µM) treated with and without equimolar
Trypsin concentration for 24-hours at 37 °C.

[4] = system: Drosophila expressing hTau^2N4R in retinal photoreceptors; experiment: Drosophila eye experiments (GMR‐hTau^2N4R rough eye, eye size); type: in vivo, Drosophila melanogaster
Description: Drosophila eye experiments: UAS-Tau^2N4R flies (BDSC_51363) were recombined to GMR-GAL4 (BDSC_8605) driver to generate stable GMR-hTau^2N4R lines (BDSC_51361). GMR-GAL4 was used as the “healthy” control. Progeny was reared on standard fly food supplemented with RI-AG03; 0.08, 0.8, 20, and 40 μM at 25°C. As controls, Tau, and driver-alone flies were incubated without the inhibitor. Freshly eclosed flies were monitored daily using a light microscope and 1-day-old live flies were imaged (n = 5/treatment) and processed on ImageJ to measure eye width. Ommaditial disorderliness quantification was done using Flynotyper ImageJ plugin.[48] Quantification of rough eye phenotype: Quantitative analysis of the total distance ommatidial disorderliness index of all stable ommatidia [Odld] was performed using the ImageJ plugin “Flynotyper.”[48] Analysis was performed using images taken by light microscope, and 150 ommatidia were considered and ranked by stability and distance to the center. Between four and five animals per genotype were analyzed. Scanning Electron Microscopy (SEM): Flies were euthanized, fixed in 2.5% glutaraldehyde in PBS, and had three 5-min washes in PBS. Samples were dehydrated for 30-min at each ethanol concentration: 50%, 70%, 80%, 90%, and 100%. Samples were transferred to hexamethyldisilazane for two 30-min changes, after which hexamethyldisilazane was sublimated overnight. […]

[5] = target: T2, VQIINK (Homo sapiens, UniProt P10636); experiment: ThT fluorescence, aggregation of VQIINK peptide; type: biochemical; conditions: ThT end-point 24 h; 20 µM VQIINK, 20 µM RI‐AG03 (equimolar), 5 µM heparin, pH 7.4; alone or combined with VQIVYK
T2 construct: ^275VQIINK^280 hexapeptide (motif found in three isoforms)
Description: (§1) Fluorescence was measured (λex = 442 nm, λem = 483 nm), and data were normalized. […] The addition of inhibitor to the growth phase was controlled by adding an equivalent volume of buffer alone.
(§2) FIGURE 3 Lead peptide RI‐AG03 dose‐response and target specificity. […] (C) Concentration‐dependent inhibition of by Tau^Δ1‐250 by RI‐AG03. […] (E) Concentration‐dependent inhibition of by Tau^2N4R by RI‐AG03. […] (F) log10 scatter graph of Tau^2N4R inhibition by RI‐AG03 employing a curve fitting algorithm to calculate the IC50 at 5 µM. Experiments were conducted in triplicate and error bars were reported as standard deviation. One factor repeated measures ANOVA + Tukey post hoc statistical analysis: p > 0.05, *p ≤ 0.05, **p ≤ 0.01, ***p ≤ 0.001.

[6] = target: T3, Tau^2N4R (Homo sapiens, UniProt P10636); experiment: ThT fluorescence end-point, heparin-induced aggregation of Tau^2N4R; type: biochemical
T3 construct: and full‐length Tau (Tau^2N4R); made in house; host or cells: E. coli BL21
T3 sequence (P10636 1-441 isoform P10636-8): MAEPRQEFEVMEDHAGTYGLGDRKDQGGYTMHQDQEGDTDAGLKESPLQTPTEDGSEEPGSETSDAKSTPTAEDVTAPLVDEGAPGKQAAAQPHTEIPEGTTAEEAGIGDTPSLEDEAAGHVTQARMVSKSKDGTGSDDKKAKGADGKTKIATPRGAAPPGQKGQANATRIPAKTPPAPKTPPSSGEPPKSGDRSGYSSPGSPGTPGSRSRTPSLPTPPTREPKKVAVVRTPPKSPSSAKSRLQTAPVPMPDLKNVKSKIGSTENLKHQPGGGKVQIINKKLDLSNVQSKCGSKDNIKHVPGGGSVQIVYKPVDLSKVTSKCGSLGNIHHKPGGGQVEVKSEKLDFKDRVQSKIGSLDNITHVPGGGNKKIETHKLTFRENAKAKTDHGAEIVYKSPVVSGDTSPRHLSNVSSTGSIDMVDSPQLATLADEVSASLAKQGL
Description: as §1, §2

[7] = target: T4, VQIVYK (Homo sapiens, UniProt P10636); experiment: ThT fluorescence, aggregation of VQIVYK peptide; type: biochemical; conditions: ThT end-point 24 h; 20 µM VQIVYK, 20 µM RI‐AG03 (equimolar), 5 µM heparin, pH 7.4; alone or combined with VQIINK
T4 construct: ^306VQIVYK^311 hexapeptide (motif found in all six isoforms)
Description: as §1, §2

T1 sequence (P10636 568-758, stated change not applied): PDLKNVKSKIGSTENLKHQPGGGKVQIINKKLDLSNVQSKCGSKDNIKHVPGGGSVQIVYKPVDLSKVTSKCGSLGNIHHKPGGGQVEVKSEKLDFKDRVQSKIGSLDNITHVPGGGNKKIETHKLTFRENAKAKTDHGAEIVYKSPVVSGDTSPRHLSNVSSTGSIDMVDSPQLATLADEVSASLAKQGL

Question: For CC[C@@H](C)[C@@H](NC(=O)[C@@H](CCCCNC(C)=O)NC(=O)[C@@H](Cc1ccc(O)cc1)NC(=O)[C@@H](CCCCN)NC(=O)[C@H]1CCCN1C(=O)CNC(=O)[C@@H](CCCNC(=N)N)NC(=O)[C@@H](CCCNC(=N)N)NC(=O)[C@@H](CCCNC(=N)N)NC(=O)[C@@H](CCCNC(=N)N)NC(=O)[C@@H](CCCNC(=N)N)NC(=O)[C@@H](CCCNC(=N)N)NC(=O)[C@@H](CCCNC(=N)N)NC(=O)[C@@H](CCCNC(=N)N)NC(C)=O)C(=O)N[C@H](CCC(N)=O)C(=O)N[C@@H](C(=O)NCC(=O)N[C@H](CCCNC(=N)N)C(N)=O)C(C)C [RI‐AG03] (Ac-[dR][dR][dR][dR][dR][dR][dR][dR]G[dP][dK][dY][dK](Ac)[dI][dQ][dV]G[dR]-NH2), which “mean diameter of large spherical structures formed with the inhibitor” value ([1]; 20 µM Tau^Δ1‐250, 20 µM RI‐AG03, 24 h, TEM, 200 species quantified) is on record?
Answer: The value was roughly 36 nm.

Question: What about the “fibrils seen by TEM” value ([1]; 20 µM Tau^Δ1‐250 with heparin 24 h, equimolar (20 µM) RI‐AG03, negative stain TEM) of the same compound?
Answer: The value was “these fibrils were not observed”.

Question: And the “concentration at which toxicity begins to increase (LDH cytotoxicity)” value [2]?
Answer: The value was 40 µM.

Question: What about the “doses found non‐toxic (LDH cytotoxicity)” value [2] of the same compound?
Answer: Its value is “up to 30 µM”.

Question: And the metabolised at 24 h, 100 µM [3]?
Answer: Its metabolised at 24 h, 100 µM is 19%.

Question: What about the “eye size of hTau^2N4R transgenics” value ([4]; GMR‐hTau^2N4R flies reared on food with 40 µM RI‐AG03, 25°C, versus untreated, n = 5/treatment) of the same compound?
Answer: Its value is “significantly improved”.

Question: And the “ommatidial disorganization (Odld, Flynotyper)” value ([4]; GMR‐hTau^2N4R flies treated with RI‐AG03, n=4-5/condition)?
Answer: Its value is “significantly improved”.

Question: What about the “effect on aggregation of VQIINK peptide” value [5] of the same compound?
Answer: The value was “dramatically reduced”.

Question: What about the IC50 [6] of the same compound?
Answer: Its IC50 is 5 µM.

Question: What about the “ThT signal at 9 days, peptide added after 24 h of Tau^2N4R aggregation” value ([6]; 20 µM Tau^2N4R, 20 µM RI‐AG03 added after 24 h, read at 216 h, versus negative control) of the same compound?
Answer: Its value is “reduction of ThT signal”.

Question: What about the “ThT signal at 9 days, peptide added after 72 h of Tau^2N4R aggregation” value ([6]; 20 µM Tau^2N4R, 20 µM RI‐AG03 added after 72 h, read at 216 h, versus negative control) of the same compound?
Answer: Its value is “no reduction of ThT signal”.

Question: And the “effect on aggregation of VQIVYK peptide” value [7]?
Answer: The value was “dramatically reduced”.
